Test results from ChEMBL document CHEMBL1201862, “PubChem BioAssay data set” (2004).
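Tested at 5 concentrations; 48 h exposure; 96-well plates; endpoints linearly interpolated, else capped at highest concentration. GI50 = concentration required for 50% inhibition of growth.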 Activity calls are given as the source filed them. No stated cut-off is given here; in the data, active = GI50 up to about 1.1 µM and inactive = higher.

How the values were obtained:
Assay in all cases: NCI anticancer screen, dose series, 48 h
786-0 = test system: 786-0
A498 = test system: A498
A549 = test system: A549
ACHN = test system: ACHN
BT-549 = test system: BT-549
CAKI-1 = test system: CAKI-1
CCRF-CEM = test system: CCRF-CEM
COLO 205 = test system: COLO 205
DU-145 = test system: DU-145
EKVX = test system: EKVX
HCC 2998 = test system: HCC 2998
HCT-116 = test system: HCT-116
HCT-15 = test system: HCT-15
HL-60 = test system: HL-60
HOP-92 = test system: HOP-92
HT-29 = test system: HT-29
Hs-578T = test system: Hs-578T
IGROV-1 = test system: IGROV-1
K562 = test system: K562
KM12 = test system: KM12
M14 = test system: M14
MCF7 = test system: MCF7
MDA-MB-231 = test system: MDA-MB-231
MDA-MB-435 = test system: MDA-MB-435
MDA-N = test system: MDA-N
MOLT-4 = test system: MOLT-4
Malme-3M = test system: Malme-3M
NCI-H226 = test system: NCI-H226
NCI-H23 = test system: NCI-H23
NCI-H460 = test system: NCI-H460
NCI-H522 = test system: NCI-H522
NCI/ADR-RES = test system: NCI/ADR-RES
OVCAR-4 = test system: OVCAR-4
OVCAR-5 = test system: OVCAR-5
OVCAR-8 = test system: OVCAR-8
RPMI-8226 = test system: RPMI-8226
RXF 393 = test system: RXF 393
SF-268 = test system: SF-268
SF-295 = test system: SF-295
SF-539 = test system: SF-539
SK-MEL-28 = test system: SK-MEL-28
SK-MEL-5 = test system: SK-MEL-5
SK-OV-3 = test system: SK-OV-3
SN12C = test system: SN12C
SNB-19 = test system: SNB-19
SNB-75 = test system: SNB-75
SR = test system: SR
SW-620 = test system: SW-620
T47D = test system: T47D
TK-10 = test system: TK-10
U-251 = test system: U-251
UACC-257 = test system: UACC-257
UACC-62 = test system: UACC-62
UO-31 = test system: UO-31
HOP-62 = test system: HOP-62
LOX IMVI = test system: LOX IMVI
OVCAR-3 = test system: OVCAR-3
PC-3 = test system: PC-3
SK-MEL-2 = test system: SK-MEL-2

O=c1c2cccnc2[s+]([O-])n1Cc1ccccc1 (stereo unspecified)
GI50 (786-0): > 100 µM (inactive) | GI50 (A498): > 100 µM (inactive) | GI50 (A549): > 100 µM (inactive) | GI50 (ACHN): > 100 µM (inactive) | GI50 (BT-549): > 100 µM (inactive) | GI50 (CAKI-1): > 100 µM (inactive) | GI50 (CCRF-CEM): 3.01 µM (inactive) | GI50 (COLO 205): > 100 µM (inactive) | GI50 (DU-145): > 100 µM (inactive) | GI50 (EKVX): > 100 µM (inactive) | GI50 (HCC 2998): > 100 µM (inactive) | GI50 (HCT-116): > 100 µM (inactive) | GI50 (HCT-15): > 100 µM | GI50 (HL-60): > 10 µM (inactive) | GI50 (HOP-92): > 100 µM (inactive) | GI50 (HT-29): > 100 µM (inactive) | GI50 (Hs-578T): > 100 µM (inactive) | GI50 (IGROV-1): > 100 µM (inactive) | GI50 (K562): > 100 µM (inactive) | GI50 (KM12): > 100 µM (inactive) | GI50 (M14): > 100 µM (inactive) | GI50 (MCF7): > 100 µM (inactive) | GI50 (MDA-MB-231): > 100 µM (inactive) | GI50 (MDA-MB-435): > 100 µM (inactive) | GI50 (MDA-N): > 100 µM (inactive) | GI50 (MOLT-4): > 100 µM (inactive) | GI50 (Malme-3M): > 100 µM (inactive) | GI50 (NCI-H226): > 100 µM (inactive) | GI50 (NCI-H23): > 100 µM (inactive) | GI50 (NCI-H460): > 100 µM (inactive) | GI50 (NCI-H522): > 100 µM (inactive) | GI50 (NCI/ADR-RES): > 100 µM (inactive) | GI50 (OVCAR-4): > 100 µM (inactive) | GI50 (OVCAR-5): > 100 µM (inactive) | GI50 (OVCAR-8): > 100 µM (inactive) | GI50 (RPMI-8226): > 100 µM (inactive) | GI50 (RXF 393): > 100 µM (inactive) | GI50 (SF-268): > 100 µM (inactive) | GI50 (SF-295): > 100 µM (inactive) | GI50 (SF-539): > 100 µM (inactive) | GI50 (SK-MEL-28): > 100 µM (inactive) | GI50 (SK-MEL-5): > 100 µM (inactive) | GI50 (SK-OV-3): > 100 µM (inactive) | GI50 (SN12C): > 100 µM (inactive) | GI50 (SNB-19): > 100 µM (inactive) | GI50 (SNB-75): > 100 µM (inactive) | GI50 (SR): > 100 µM (inactive) | GI50 (SW-620): > 100 µM (inactive) | GI50 (T47D): > 100 µM (inactive) | GI50 (TK-10): > 100 µM (inactive) | GI50 (U-251): > 100 µM (inactive) | GI50 (UACC-257): > 100 µM (inactive) | GI50 (UACC-62): > 100 µM (inactive) | GI50 (UO-31): > 100 µM (inactive)

COc1cccc(C2c3cc4c(cc3OC(N3CCOCC3)C2C)OCO4)c1 (stereo unspecified)
GI50 (A549): 12.9 µM (inactive) | GI50 (ACHN): 14.7 µM (inactive) | GI50 (BT-549): 3.39 µM (inactive) | GI50 (COLO 205): 11.3 µM (inactive) | GI50 (DU-145): 31.8 µM (inactive) | GI50 (EKVX): 26.7 µM (inactive) | GI50 (HCT-116): 13.2 µM (inactive) | GI50 (HCT-15): 6.31 µM | GI50 (HOP-62): 16.2 µM (inactive) | GI50 (HOP-92): 25.5 µM (inactive) | GI50 (HT-29): 4.68 µM (inactive) | GI50 (Hs-578T): 13.9 µM (inactive) | GI50 (IGROV-1): 15 µM (inactive) | GI50 (K562): 3.1 µM (inactive) | GI50 (LOX IMVI): 5.28 µM (inactive) | GI50 (M14): 7.05 µM (inactive) | GI50 (MCF7): 6.61 µM (inactive) | GI50 (MDA-MB-231): 35.1 µM (inactive) | GI50 (MDA-N): 3.07 µM (inactive) | GI50 (MOLT-4): 2.7 µM (inactive) | GI50 (Malme-3M): 10.5 µM (inactive) | GI50 (NCI-H226): 15.6 µM (inactive) | GI50 (NCI-H460): 14.2 µM (inactive) | GI50 (NCI-H522): 8.24 µM (inactive) | GI50 (NCI/ADR-RES): 13.7 µM (inactive) | GI50 (OVCAR-3): 7.74 µM (inactive) | GI50 (OVCAR-4): 14.7 µM (inactive) | GI50 (OVCAR-5): 27 µM (inactive) | GI50 (OVCAR-8): 23.4 µM (inactive) | GI50 (PC-3): 5.53 µM (inactive) | GI50 (RPMI-8226): > 100 µM (inactive) | GI50 (SF-268): 16.7 µM (inactive) | GI50 (SF-295): 9.64 µM (inactive) | GI50 (SK-MEL-2): 12.2 µM (inactive) | GI50 (SK-MEL-5): 4.37 µM (inactive) | GI50 (SK-OV-3): 17.9 µM (inactive) | GI50 (SN12C): 24.3 µM (inactive) | GI50 (SNB-19): 20.5 µM (inactive) | GI50 (SNB-75): 28.3 µM (inactive) | GI50 (SR): 9.1 µM (inactive) | GI50 (SW-620): 3.19 µM (inactive) | GI50 (T47D): 27.5 µM (inactive) | GI50 (UACC-257): 14.8 µM (inactive) | GI50 (UACC-62): 8.47 µM (inactive) | GI50 (UO-31): 12.8 µM (inactive)

CC(NC(=O)C(N)CC(=O)O)NC(=O)N1CCCC1 (stereo unspecified)
GI50 (786-0): > 100 µM (inactive) | GI50 (A498): > 100 µM (inactive) | GI50 (A549): > 100 µM (inactive) | GI50 (ACHN): > 100 µM (inactive) | GI50 (BT-549): > 100 µM (inactive) | GI50 (CAKI-1): > 100 µM (inactive) | GI50 (CCRF-CEM): > 100 µM (inactive) | GI50 (COLO 205): > 100 µM (inactive) | GI50 (DU-145): > 100 µM (inactive) | GI50 (EKVX): > 100 µM (inactive) | GI50 (HCC 2998): > 100 µM (inactive) | GI50 (HCT-116): > 100 µM (inactive) | GI50 (HCT-15): > 100 µM | GI50 (HOP-62): > 100 µM (inactive) | GI50 (HOP-92): > 100 µM (inactive) | GI50 (HT-29): > 100 µM (inactive) | GI50 (Hs-578T): > 100 µM (inactive) | GI50 (IGROV-1): > 100 µM (inactive) | GI50 (K562): > 100 µM (inactive) | GI50 (KM12): > 100 µM (inactive) | GI50 (LOX IMVI): > 100 µM (inactive) | GI50 (M14): > 100 µM (inactive) | GI50 (MCF7): > 100 µM (inactive) | GI50 (MDA-MB-231): > 100 µM (inactive) | GI50 (MDA-MB-435): > 100 µM (inactive) | GI50 (MDA-N): > 100 µM (inactive) | GI50 (MOLT-4): > 100 µM (inactive) | GI50 (Malme-3M): > 100 µM (inactive) | GI50 (NCI-H226): > 100 µM (inactive) | GI50 (NCI-H23): > 100 µM (inactive) | GI50 (NCI-H460): > 100 µM (inactive) | GI50 (NCI-H522): > 100 µM (inactive) | GI50 (NCI/ADR-RES): > 100 µM (inactive) | GI50 (OVCAR-3): > 100 µM (inactive) | GI50 (OVCAR-4): > 100 µM (inactive) | GI50 (OVCAR-5): > 100 µM (inactive) | GI50 (OVCAR-8): > 100 µM (inactive) | GI50 (PC-3): > 100 µM (inactive) | GI50 (RPMI-8226): > 100 µM (inactive) | GI50 (RXF 393): > 100 µM (inactive) | GI50 (SF-268): > 100 µM (inactive) | GI50 (SF-295): > 100 µM (inactive) | GI50 (SF-539): > 100 µM (inactive) | GI50 (SK-MEL-28): > 100 µM (inactive) | GI50 (SK-MEL-2): > 100 µM (inactive) | GI50 (SK-MEL-5): > 100 µM (inactive) | GI50 (SK-OV-3): > 100 µM (inactive) | GI50 (SN12C): > 100 µM (inactive) | GI50 (SNB-19): > 100 µM (inactive) | GI50 (SNB-75): > 100 µM (inactive) | GI50 (SW-620): > 100 µM (inactive) | GI50 (T47D): > 100 µM (inactive) | GI50 (TK-10): > 100 µM (inactive) | GI50 (U-251): > 100 µM (inactive) | GI50 (UACC-257): > 100 µM (inactive) | GI50 (UACC-62): > 100 µM (inactive) | GI50 (UO-31): > 100 µM (inactive)
